What all share (assay): Kinase selectivity, scanMAX Kinase assay panel (DiscoverX), % control at 1 uM
Type in all cases: binding

Assay [1] deals with T1, scanMAX Kinase assay panel (Homo sapiens, UniProt P51956).
T1 construct: purchased DiscoverX
T1 sequence (P51956 1-506): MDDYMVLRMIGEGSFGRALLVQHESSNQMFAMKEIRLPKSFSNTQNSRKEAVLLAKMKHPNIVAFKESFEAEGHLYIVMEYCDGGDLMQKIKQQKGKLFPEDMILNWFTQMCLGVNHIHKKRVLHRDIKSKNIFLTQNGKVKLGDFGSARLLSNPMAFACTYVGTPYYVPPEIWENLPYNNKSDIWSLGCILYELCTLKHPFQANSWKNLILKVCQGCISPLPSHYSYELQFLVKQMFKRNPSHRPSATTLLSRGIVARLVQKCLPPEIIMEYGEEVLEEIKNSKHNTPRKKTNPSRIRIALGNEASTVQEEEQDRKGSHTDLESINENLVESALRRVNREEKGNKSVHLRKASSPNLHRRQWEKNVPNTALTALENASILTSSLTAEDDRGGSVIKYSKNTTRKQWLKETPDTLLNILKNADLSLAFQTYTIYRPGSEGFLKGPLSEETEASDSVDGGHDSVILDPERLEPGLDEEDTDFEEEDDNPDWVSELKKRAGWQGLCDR
The conditions noted are these: NEK3; 1 uM; read-out: Percent Control (%). A digest of the protocol: (§1)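 Each kinase was first exposed to the test compound at 1 uM in DMSO. Signal was then normalised to positive and negative controls to give % control. Finally, any enzyme showing <35% control was judged inhibited.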

Assay [2] addresses T2, scanMAX Kinase assay panel (Homo sapiens, UniProt Q9NRH2).
T2 construct: purchased DiscoverX
T2 sequence (Q9NRH2 1-765): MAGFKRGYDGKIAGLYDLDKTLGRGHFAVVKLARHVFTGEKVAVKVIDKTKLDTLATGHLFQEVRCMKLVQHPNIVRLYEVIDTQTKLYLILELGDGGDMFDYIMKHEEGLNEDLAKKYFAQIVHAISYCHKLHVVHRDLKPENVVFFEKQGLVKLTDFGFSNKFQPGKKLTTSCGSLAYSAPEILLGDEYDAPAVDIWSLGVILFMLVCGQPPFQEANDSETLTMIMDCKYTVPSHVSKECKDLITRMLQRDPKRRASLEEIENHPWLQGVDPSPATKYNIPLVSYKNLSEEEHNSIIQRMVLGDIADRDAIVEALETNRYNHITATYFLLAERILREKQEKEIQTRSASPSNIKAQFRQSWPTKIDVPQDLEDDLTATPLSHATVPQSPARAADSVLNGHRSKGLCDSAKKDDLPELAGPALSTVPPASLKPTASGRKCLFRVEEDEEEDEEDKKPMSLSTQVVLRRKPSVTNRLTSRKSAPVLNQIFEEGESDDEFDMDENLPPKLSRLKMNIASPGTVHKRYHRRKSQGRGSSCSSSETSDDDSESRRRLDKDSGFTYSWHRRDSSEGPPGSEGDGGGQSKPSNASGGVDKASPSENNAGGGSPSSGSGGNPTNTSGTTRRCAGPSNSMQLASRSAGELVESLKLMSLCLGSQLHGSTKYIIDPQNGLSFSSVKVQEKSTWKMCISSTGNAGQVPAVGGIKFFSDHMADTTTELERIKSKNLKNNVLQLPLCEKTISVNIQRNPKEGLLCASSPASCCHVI
The conditions noted are these: SNRK; 1 uM; read-out: Percent Control (%). A digest of the protocol: as §1

Assay [3] concerns the target T3, scanMAX Kinase assay panel (Homo sapiens, UniProt Q07002).
T3 construct: purchased DiscoverX
The conditions noted are these: PCTK3; 1 uM; read-out: Percent Control (%). A digest of the protocol:
as §1

The target in assay [4] is T4, scanMAX Kinase assay panel (Homo sapiens, UniProt P35626).
T4 construct: purchased DiscoverX
T4 sequence (P35626 1-688): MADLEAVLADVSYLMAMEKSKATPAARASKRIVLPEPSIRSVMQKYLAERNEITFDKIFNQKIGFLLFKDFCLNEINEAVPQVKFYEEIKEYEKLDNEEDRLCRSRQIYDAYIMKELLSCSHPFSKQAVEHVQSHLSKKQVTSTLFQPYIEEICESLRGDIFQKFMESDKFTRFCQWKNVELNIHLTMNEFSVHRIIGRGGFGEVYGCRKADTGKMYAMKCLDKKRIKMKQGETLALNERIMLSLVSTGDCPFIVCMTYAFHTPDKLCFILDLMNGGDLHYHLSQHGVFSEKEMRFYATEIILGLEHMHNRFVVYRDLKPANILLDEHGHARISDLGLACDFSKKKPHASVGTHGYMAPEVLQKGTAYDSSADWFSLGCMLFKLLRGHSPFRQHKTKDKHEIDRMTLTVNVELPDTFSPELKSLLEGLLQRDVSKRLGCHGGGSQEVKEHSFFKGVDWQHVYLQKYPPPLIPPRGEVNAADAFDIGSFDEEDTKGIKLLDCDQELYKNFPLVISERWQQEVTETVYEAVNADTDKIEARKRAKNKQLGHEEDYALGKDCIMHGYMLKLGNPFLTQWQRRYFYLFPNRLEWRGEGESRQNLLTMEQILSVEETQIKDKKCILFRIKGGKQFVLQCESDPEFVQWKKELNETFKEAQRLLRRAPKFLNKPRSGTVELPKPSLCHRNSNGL
The conditions noted are these: GRK3; 1 uM; read-out: Percent Control (%). Put shortly: as §1

The target in assay [5] is T5, scanMAX Kinase assay panel (Homo sapiens, UniProt Q9Y6R4).
T5 construct: purchased DiscoverX
T5 sequence (Q9Y6R4 whole entry): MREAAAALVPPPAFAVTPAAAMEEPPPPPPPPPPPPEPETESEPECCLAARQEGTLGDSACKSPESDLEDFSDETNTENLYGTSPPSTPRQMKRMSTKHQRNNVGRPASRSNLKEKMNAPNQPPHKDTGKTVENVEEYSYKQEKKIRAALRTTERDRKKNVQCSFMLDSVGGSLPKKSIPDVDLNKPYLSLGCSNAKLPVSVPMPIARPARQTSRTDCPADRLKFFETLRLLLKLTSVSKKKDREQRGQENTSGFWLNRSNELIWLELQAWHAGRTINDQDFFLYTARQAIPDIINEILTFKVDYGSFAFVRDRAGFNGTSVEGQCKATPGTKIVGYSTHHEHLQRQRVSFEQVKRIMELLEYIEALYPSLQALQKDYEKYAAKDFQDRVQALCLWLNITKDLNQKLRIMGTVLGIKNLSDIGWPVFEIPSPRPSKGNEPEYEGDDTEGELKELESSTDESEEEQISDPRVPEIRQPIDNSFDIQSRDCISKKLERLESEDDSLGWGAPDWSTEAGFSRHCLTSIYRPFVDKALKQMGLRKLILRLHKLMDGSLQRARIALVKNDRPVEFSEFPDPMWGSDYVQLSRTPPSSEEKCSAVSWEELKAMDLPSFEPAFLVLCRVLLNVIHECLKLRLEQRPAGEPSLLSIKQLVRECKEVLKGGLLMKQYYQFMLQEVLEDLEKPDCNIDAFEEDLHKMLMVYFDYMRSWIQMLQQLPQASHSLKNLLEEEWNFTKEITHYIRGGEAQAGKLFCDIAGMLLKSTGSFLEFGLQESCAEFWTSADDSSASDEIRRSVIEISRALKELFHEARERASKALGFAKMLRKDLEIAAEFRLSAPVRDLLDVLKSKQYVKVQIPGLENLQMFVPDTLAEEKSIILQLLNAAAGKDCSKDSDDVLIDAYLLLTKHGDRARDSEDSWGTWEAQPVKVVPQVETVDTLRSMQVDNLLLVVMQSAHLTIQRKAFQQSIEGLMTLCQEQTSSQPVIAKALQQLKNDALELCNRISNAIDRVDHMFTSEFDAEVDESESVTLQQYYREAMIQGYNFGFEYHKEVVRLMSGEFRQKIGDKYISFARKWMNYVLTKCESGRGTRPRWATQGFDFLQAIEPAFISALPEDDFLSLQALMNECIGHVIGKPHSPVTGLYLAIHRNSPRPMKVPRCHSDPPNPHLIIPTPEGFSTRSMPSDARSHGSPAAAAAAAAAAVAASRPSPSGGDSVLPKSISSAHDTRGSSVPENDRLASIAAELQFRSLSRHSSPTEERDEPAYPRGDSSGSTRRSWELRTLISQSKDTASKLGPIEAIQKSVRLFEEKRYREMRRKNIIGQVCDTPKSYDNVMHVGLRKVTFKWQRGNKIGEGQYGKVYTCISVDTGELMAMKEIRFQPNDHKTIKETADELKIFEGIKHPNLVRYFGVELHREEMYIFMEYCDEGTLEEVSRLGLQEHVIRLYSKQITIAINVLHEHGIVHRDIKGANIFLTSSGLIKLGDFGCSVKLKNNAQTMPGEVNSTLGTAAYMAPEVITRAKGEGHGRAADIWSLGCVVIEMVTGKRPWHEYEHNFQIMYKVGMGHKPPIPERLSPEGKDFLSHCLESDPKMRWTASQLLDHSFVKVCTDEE
The conditions noted are these: MAP3K4; 1 uM; read-out: Percent Control (%). A digest of the protocol: as §1

Molecules are shown by their SMILES.

T3 sequence (Q07002 whole entry): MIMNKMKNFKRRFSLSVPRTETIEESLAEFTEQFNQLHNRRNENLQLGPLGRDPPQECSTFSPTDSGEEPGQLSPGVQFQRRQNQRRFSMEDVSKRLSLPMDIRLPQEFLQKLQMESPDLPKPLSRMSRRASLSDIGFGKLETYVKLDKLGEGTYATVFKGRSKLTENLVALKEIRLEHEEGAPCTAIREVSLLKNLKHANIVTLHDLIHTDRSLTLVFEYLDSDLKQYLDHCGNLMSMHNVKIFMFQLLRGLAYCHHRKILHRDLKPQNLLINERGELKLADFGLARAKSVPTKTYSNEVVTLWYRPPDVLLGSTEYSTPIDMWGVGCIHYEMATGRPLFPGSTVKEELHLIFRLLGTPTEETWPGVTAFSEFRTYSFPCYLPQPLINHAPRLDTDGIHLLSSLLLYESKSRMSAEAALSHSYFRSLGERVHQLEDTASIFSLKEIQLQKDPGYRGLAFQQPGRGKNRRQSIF

On to `Cc1ccc(C(=O)Nc2ccc(CN3CCN(C)CC3)c(C(F)(F)F)c2)cc1C#Cc1cnc2c(Nc3cnn(C)c3)cccn12` [Example 1, 4-methyl-3-((8-((1-methyl-1H-pyrazol-4-yl)amino)imidazo[1,2-a]pyridin-3-yl)ethynyl)-N-(4-((4-methylpiperazin-1-yl)methyl)-3-(trifluoromethyl)phenyl)benzamide], for which the remaining binding at 1 µM in assay [1] was determined as 64%; in assay [2], 84%; in assay [3], 60%; in assay [4] it was 82%; in assay [5], 70%.
For `Cc1cn(-c2cc(NC(=O)c3ccc(C)c(C#Cc4cnc5c(Nc6cnn(C)c6)cccn45)c3)cc(C(F)(F)F)c2)cn1` [Example 12, 4-methyl-N-(3-(4-methyl-1H-imidazol-1-yl)-5-(trifluoromethyl)phenyl)-3-((8-((1-methyl-1H-pyrazol-4-yl)amino)imidazo[1,2-a]pyridin-3-yl)ethynyl)benzamide] the same measures were 86%, 100%, 84%, 100% and 92%.
As for `Cc1ccc(NC(=O)C2(C(=O)Nc3ccc(F)cc3)CC2)cc1C#Cc1cnc2c(Nc3cnn(C(C)C)c3)cccn12` [Example 78], the remaining binding at 1 µM came out at 96% in assay [1]; 95% in assay [2]; 100% in assay [3]; 97% in assay [4]; 90% in assay [5].

The values above are taken from patent US10870647B2, “Imidazopyridine derivative, method for preparing same, and pharmaceutical composition containing same as active ingredient for preventing or treating cancer” (DAEGU-GYEONGBUK MEDICAL INNOVATION FOUNDATION, priority 2016, dated 2020).
